Source: patent publication US20220241409A1, “WATER SOLUBLE ADJUVANT AND COMPOSITION CONTAINING SAME” (Sumitomo Dainippon Pharma Co., Ltd., priority 2019, published 2022)

What was measured:
[1] = test system: Antigen-Specific CTL; assay: Immune response of antigen-specific CTL for peptide and tumor cell, vaccine a (Test 11); assay type: in vivo, mouse
Method: The immune response of CTL induced with a vaccine comprising the present compound in the presence of tumor cells was evaluated in the following procedure. The vaccine was administered to a HLA-A*02:01 transgenic mouse to prepare splenocyte comprising an antigen peptide-specific CTL, and the immune response was evaluated by incubating the spelenocyte in the presence of tumor cells and antigen peptides.
Specifically, vaccine a prepared like Test 6 was injected to a HLA-A*02:01 transgenic mouse intradermally at the tail base area in an amount for administering 300 μg of Compound of formula 4 per body and 225 μg of Peptide SEQ ID No. 3 per body. Or, in the step of preparing vaccine a, the compound prepared in Example 3 was added to the diluted peptide solution to prepare a vaccine, and the prepared vaccine was injected to a HLA-A*02:01 transgenic mouse intradermally at the tail base area in an amount for administering 300 μg of Compound of formula 4 per body, 225 μg of Peptide SEQ ID No. 3 per body, and 32.5 ng of the compound prepared in Example 3 per body. The administrations were done twice, which had one week interval. One week after the final administration, the mice were sacrificed with CO2 gas, and then spleens removed from the mice. A splenocyte suspension was prepared from the spleens with Complete T-cell Medium (hereinafter, CTM). The splenocytes derived from each three mice per group were mixed. The mixed splenocytes were stained with an FITC-labeled anti-CD8 antibody (BD Pharmingen) and a PE-labeled HLA tetramer (MBL) against Peptide SEQ ID NO. 1, and analyzed for peptide-specific CTLs with a flow cytometer.
The peptide (SEQ ID No. 1) solution was added to a part of the splenocyte at a final concentration of 100 μg/mL, and the cells were stood for about one hour at 37° C., 5% CO2. After excess peptides were washed out with CTM, the peptide-pulsed splenocyte and unpulsed splenocyte were mixed at a ratio of 1:10, and the mixture was seeded on a U-bottom 96 well plate at 3.85×10^5 cells/well. A cell line (hereinafter, also referred to as LLC-HHD-WT1 tumor cells) was established by stably expressing HHD [a chimeric HLA of a human MHC (HLA-A*02:01) and a mouse MHC (H-2D^b)] and antigen peptide (SEQ ID No. 1) in a mouse Lewis lung carcinoma cell line LLC as tumor cells. X-ray (50 Gy) was irradiated to the LLC-HHD-WT1 tumor cells, and then the LLC-HHD-WT1 tumor cells were cultured in the presence of a mouse recombinant IFN-γ (100 ng/mL) for about two days and washed with CTM. […] The concentration of mouse IFN-γ in the culture supernatant was measured with an ELISA kit (R&D Systems). […] 1, and analyzed for peptide-specific CTLs with a flow cytometer.

[2] = test system: MCA-A24/Kb-WT1 tumor cells; assay: In vivo suppression of tumor growth by vaccine (Test 15); conditions: 27th day after transplantation, HLA-A*24:02 transgenic mouse, vaccination 7 days before and after transplantation; versus vehicle (group a); group b p<0.05, group c (100 ng Example 2 per body) p<0.01
Method: The HLA-A*24:02 transgenic mouse (C57BL/6CrHLA-A24/Kb) used herein is a mouse expressing a chimeric HLA (HLA-A*2402/Kb) of a human MHC (HLA-A*24:02) and a mouse MHC (H-2Kb) (Int. J. Cancer 2002; 100: 565-570). The mouse can induce […] CTLs with a peptide which can bind to human HLA-A*24:02.
A suspension of 3-methylcholanthrene in corn oil was administered to a HLA-A*24:02 transgenic mouse intradermally at the ventral region. From the tumor generated at the administration site, HLA-A*2402/Kb-expressing tumor cells were obtained. Cell lines established by stably expressing WT1 antigen peptide (SEQ ID No. 2) in the cells (herein, also referred to as MCA-A24/Kb-WT1 tumor cells) were suspended in Hanks' Balanced Salt Solution and intradermally transplanted to the ventral region of HLA-A*24:02 transgenic mouse (5×10^5 cells per mouse). The mice made to receive a vehicle (Group a), a vaccine (Group b), or a vaccine containing the compound prepared in Example 2 (Group c) were classified. Six mice per group were used. […] The tumor size was measured 27 days after the tumor transplantation and the tumor volume was calculated.

| Structure (SMILES) | amount of IFN-γ produced from the CTL in the mixed culture, relative to vaccine a without compound ([1]; about three days culture with LLC-HHD-WT1 tumor cells and Peptide SEQ ID No. 1, ELISA, average of 3 wells) [times] | difference in CTL specific to Peptide SEQ ID No. 1 versus vaccine a without compound ([1]; after about three days culture with LLC-HHD-WT1 tumor cells and Peptide SEQ ID No. 1) [times] | CTLs specific to Peptide (SEQ ID No. 1) in splenocyte, relative to vaccine a without compound ([1]; before culture, flow cytometry (tetramer), 32.5 ng per body in vaccine a, twice) [times] | change of CTL specific to Peptide SEQ ID No. 1 on culture with tumor cells ([1]; splenocytes mixed with tumor cells and cultured in the presence of Peptide SEQ ID No. 1) | growth of tumor cells (average tumor volume) [2] |
| --- | --- | --- | --- | --- | --- |
| CCCCOc1nc(N)c2[nH]c(=O)n(Cc3ccc(CN(C)CCOCCOCCOCCOCCO)cc3)c2n1 [Example 3, 6-amino-2-butoxy-9-{[4-(16-hydroxy-2-methyl-5,8,11,14-tetraoxa-2-azahexadecan-1-yl)phenyl]methyl}-7,9-dihydro-8H-purin-8-one] | 4.9 | 3.6 | 1.7 | increased | – |
| CCCCOc1nc(N)c2[nH]c(=O)n(Cc3ccc(CN(C)CCOCCOCCOCCOCCO)nc3)c2n1 [Example 2, 6-amino-2-butoxy-9-{[6-(16-hydroxy-2-methyl-5,8,11,14-tetraoxa-2-azahexadecan-1-yl)pyridin-3-yl]methyl}-7,9-dihydro-8H-purin-8-one-trifluoroacetate] | – | – | – | – | more potently suppressed |
